Experimental data: patent US9421197B2, “Methods of generating hyper INOS expressing cells and uses thereof” (CASE WESTERN RESERVE UNIVERSITY, priority 2010, dated 2016)

Legend:
excisional wounds = test: inflammatory wound model: wound healing curves; format: in vivo, mice; conditions: for day by which wounds healed: IL6−/− mice, inflammatory wound treatment, agent given i.p.
peritoneal macrophages = test: thioglycollate-induced peritonitis, peritoneal macrophages analyzed ex vivo by RT-PCR; conditions: IL6−/− mice treated in vivo
Method: For RT-PCR analysis, RNA was isolated using Trizol (Invitrogen) following the manufacturer's instructions, and was reverse-transcribed and quantified using Applied Biosystems TaqMan® RNA-to-CT™ 1-Step Kit, TaqMan® Gene Expression Assays for 18 s RNA, iNOS II, […], and IL-1β, and Step-One™ System. Cycle time, temperature, and number were based on Applied Biosystems recommendations.
Mice were injected i.p. with 2 ml of thioglycollate and sacrificed 24 hours later mice by cervical dislocation. Lavage was performed by infusing 5 ml of […] DPBS into the peritoneal cavity. The fluid sample is recovered by aspirating the liquid with a syringe. 80%±21% of instilled fluid volume is recovered. Macrophages were harvested following centrifugation of the […].

[1] = therapeutic doses; FDA alert May 21, 2007; cited from earlier work
iNOS and TNF-α mRNA = test: inflammatory wound model: iNOS and TNF-α expression in skin; format: in vivo; conditions: IL6−/− mice, combined wounding, UVB and topical rosiglitazone, 24 hours
Method: Cycle time, temperature, and number were based on Applied Biosystems recommendations. Skin was wounded with some modifications. Mice were treated with 3-6 mm excisional wounds, one midline and two on each side of the midline. […] Wounds were measured and treated with topical rosiglitazone solution daily until healed (loss of serum crust and reepithelialization). Lung Treatment and Preparation […] All other reagents were purchased from sigma.

NF-κB p65 and STAT3 = test: Western blot of nuclear NF-κB p65 and STAT3 in thioglycollate-elicited macrophages; format: cell-based, mice; conditions: reconstitution of IL6−/− macrophages
Method: Mice were injected i.p. with 2 ml of thioglycollate and sacrificed 24 hours later mice by cervical dislocation. Lavage was performed by infusing 5 ml of 40 C DPBS into the peritoneal cavity. The fluid sample is recovered by aspirating the liquid with a syringe. 80%±21% of instilled fluid volume is recovered. Macrophages were harvested following centrifugation of the BAL fluid.
NE-PER kit (Thermo Scientific) was used to extract nuclear and cytoplasmic protein from peritoneal macrophages. Protein samples were prepared under reduced conditions and western blot analysis was performed using a standard protocol (Invitrogen). Stat3 (79D7) Rabbit mAb, NF— xB p65, β-actin (13E5) Rabbit mAb (Cell Signaling Technology, Danvers, Mass.) were used for western blot evaluation. Densiometry analyzed by Biorad VersaDoc imaging system.

For `CC(=N)NCc1cccc(CN)c1` [1400 W], the “day by which wounds healed” value (excisional wounds) was 14 days.
In the case of `O=C(Nc1ccccc1)c1cc([N+](=O)[O-])ccc1Cl` [GW9662], the iNOS expression (peritoneal macrophages) is reported as “No significant increase”.
In the case of `CN(CCOc1ccc(CC2SC(=O)NC2=O)cc1)c1ccccn1` (centres unmarked) [rosiglitazone], the “delay of wound closure” value (excisional wounds; IL6−/− mice compared to wildtype, inflammatory wound protocol) is given as 8 days, the “risk of heart attack” value [1] is given as “substantially increased risk” and the “increase in TNF-α mRNA expression” value (iNOS and TNF-α mRNA) is given as 13 fold. For the same molecule, the “increase in iNOS mRNA expression” value (iNOS and TNF-α mRNA) was 20 fold.
In the case of rIL-6: recombinant IL-6 (R&D Systems), the “day by which wounds healed” value (excisional wounds) is reported as 11 days and the “STAT3 and NF-kB levels” value (NF-κB p65 and STAT3) is reported as “restores STAT3 and NF-kB levels similar to wildtype conditions”.
